Laboratory results reported in a melting point compilation (Tetko et al.; mined from patent text by program, amines drawn as free bases though some values may be those of a salt).

First: CC(C)NC(=O)N1CCc2cc(S(=O)(=O)N3CC(c4ccccc4)NC3=O)ccc21 (configuration not stated)
Second: CC(C(=O)O)C(=O)NCCC=C1c2ccccc2CCc2ccccc21 (configuration not stated)
The melting point of the first is lower: 120 to 122 °C for the first, 174 to 176 °C for the second.

First: N=C(N)c1ccc(-n2ccn(-c3ccc(C=CC(=O)O)cc3)c2=O)cc1
Second: CN1CCN(c2ccc(Nc3ncc4c(n3)S/C(=C/c3ccc(C(N)=O)cc3)C(=O)N4)cc2)CC1
The melting point of the first is higher: over 350 °C for the first, 294 to 298 °C for the second.

Compared with `Nc1cccc(C#Cc2c(F)c(F)nc(F)c2F)c1`, `CNc1nc(-c2ccc(O)c(F)c2)cc2c(OC)cccc12` is higher in melting point: 172 to 173 °C for the first, 185 to 187 °C for the second.

First: CCn1cnc2c(Nc3cccc([N+](=O)[O-])c3)nc(N[C@H]3CC[C@H](O)CC3)nc21
Second: N=C(N)Nc1nc(-c2ccccc2[N+](=O)[O-])c2cc(Cl)ccc2n1
The melting point of the first is higher: 237 to 238 °C for the first, 150 °C for the second.

First: CC(c1ncncc1Cl)C(O)(Cn1cncn1)c1ccc(F)cc1F (configuration not stated)
Second: COC(=O)c1cncnc1NCc1ccncc1
The melting point of the first is higher: 128 °C for the first, 111 to 112 °C for the second.

First: c1ccc(SC2(Sc3ccccc3)CCCn3cc(-c4ccccc4)nc32)cc1
Second: Cc1oc(-c2ccccc2)nc1COc1nn(Cc2ccc(Oc3ccccc3)cc2)cc1CCC(=O)O
The melting point of the first is higher: 129 to 131 °C for the first, 120 to 121 °C for the second.

First: CC(=NOCC(N)=O)c1ccc(Cl)c(Cl)c1
Second: COc1cc(C)c(C(=O)c2c(Cl)cccc2Cl)cc1OC(F)F
The melting point of the first is lower: 111 to 112 °C for the first, 126 to 128 °C for the second.

First: CCOC(=O)c1cc(=O)c2c(OCC(O)COc3ccc(OC)cc3)cccc2o1 (configuration not stated)
Second: CN(CCOc1ccc(CC(Cl)C(N)=O)cc1)c1nc2ccccc2o1 (configuration not stated)
The melting point of the first is lower: 135 to 136 °C for the first, 149 to 151 °C for the second.

First: O=C(N[C@H](Cc1cccc(OC(F)(F)C(F)F)c1)[C@@H](O)c1csc(-c2ccccc2)n1)c1cccc2c1C=CCCC2 (racemic)
Second: O=C(Nc1ccc(C(=O)N2Cc3ccccc3-c3ccccc32)cc1)c1ccc(Cl)c(Cl)c1
The melting point of the first is higher: 137 to 138 °C for the first, 94 to 95 °C for the second.

First: COc1cccc2c1CC(C(=O)NCCOc1ccc(C(=O)O)cc1)N2S(=O)(=O)c1ccc(-c2ccc(F)cc2)cc1 (configuration not stated)
Second: Cc1cccc(C(=O)NO)c1N(C)S(=O)(=O)c1ccc(OCCCNC(=O)c2cc3ccccc3o2)cc1
The melting point of the first is lower: 113 °C for the first, 148 to 150 °C for the second.

First: O=c1ccc2ccc(OCCCN3CCCN(c4cccc(Cl)c4Cl)CC3)cc2[nH]1
Second: COc1cc(OC)cc(N2CCN(C(=O)N(CC3CC3)c3cc4ccccc4nc3OC)CC2)c1
The melting point of the first is lower: 117 to 118 °C for the first, 118 to 120 °C for the second.

First: Cc1ccc(C(=O)OC(C)c2nc3c(c(=O)n(C)c(=O)n3C)n2C)cn1 (configuration not stated)
Second: CS(=O)c1cccc(-n2c(=O)n(Cc3ccncc3)c(=O)c3cccnc32)c1 (configuration not stated)
The melting point of the first is lower: 165 to 180 °C for the first, 218 to 219 °C for the second.

First: Cc1c(-c2ccc(O)cc2)sc(C=O)c1-c1cccc(O)c1
Second: CCC(O)(CC)C1(c2onc(-c3ccc(O)cc3)c2-c2ccccc2)CC1
The melting point of the first is higher: 208 to 210 °C for the first, 118 to 119 °C for the second.

First: Cc1nc(C)c(CBr)nc1C
Second: CCC(O)c1nc(C)nc2c1c(C)c(C)n2-c1c(C)cc(C)cc1C (configuration not stated)
The melting point of the first is lower: 41.2 to 44 °C for the first, 143 to 144 °C for the second.

First: CC(C)(C)c1cc(-n2nc3ccccc3n2)c(O)c(C(C)(C)C)c1
Second: COc1cc(C)c(C(=O)c2c(Cl)cccc2Cl)cc1OC(C)(C)C
The melting point of the first is higher: 150 to 152 °C for the first, 102 °C for the second.

First: Cn1cc(C2=C(c3csc4ccccc34)C(=O)NC2=O)c2ccccc21
Second: CC(C)S(=O)(=O)c1cccc(-c2nc(=O)c3ccccc3s2)n1
The melting point of the first is higher: 238 to 241 °C for the first, 205 to 206 °C for the second.

Compared with `CCCc1c(C(=O)C(C)C)c2ccc(NC=O)cc2n1Cc1ccccc1Cl`, `Cc1nc(-c2ccc3c(=O)n(CC(C)C)c(CNC(=O)OC(C)(C)C)c(-c4ccccc4)c3c2)sc1C#N` is higher in melting point: 113 to 115 °C for the first, 209 to 211 °C for the second.

Compared with `COc1c(Cl)cccc1NS(=O)(=O)c1cc(S(=O)(=O)Nc2cccc(Cl)c2OC)c2cc(O)ccc2c1`, `Oc1ccc2nc(-c3ccc(O)c(F)c3)cc(-c3ccc(F)cc3)c2c1` is higher in melting point: 164 to 166 °C for the first, 240 to 243 °C for the second.

First: CCC(N)(CC)Cc1c[nH]c2ccccc12
Second: CCCC1=C(C(=O)OCC)C(c2ccccc2OCc2ccccc2)c2c[nH]nc2N1 (configuration not stated)
The melting point of the first is lower: 92 to 94 °C for the first, 128 °C for the second.

First: CC(C)(CO)NC(=O)c1cccnc1
Second: O=C(NCCc1ccc(O)cc1)c1cccnc1
The melting point of the first is lower: 91 to 93 °C for the first, 179 to 181 °C for the second.

First: CC(C)(C)C(NC(=O)c1ccc(Cl)cc1)NC(Nc1cccnc1)=C(C#N)C#N (configuration not stated)
Second: Cc1ccc(C(=O)c2ccc(CC#N)n2C)cc1
The melting point of the first is higher: 213 to 214 °C for the first, 102 to 105 °C for the second.

Compared with `CC(c1ccccc1)N1CC(CF)(C(=O)NCc2ccccc2)CC1=O` (configuration not stated), `CC1(C)CC(=O)c2c(SCc3ccccc3)cn(-c3ccccn3)c2C1` is higher in melting point: 114 to 116 °C for the first, 190 to 192 °C for the second.

First: c1ccc2c(c1)nc1n2CCC(CN2CCNCC2)S1 (configuration not stated)
Second: O=[N+]([O-])C1=C2N(Cc3ccc(Cl)nc3)CCN2C2CCC1O2 (configuration not stated)
The melting point of the first is higher: 151 to 153 °C for the first, 149 to 150 °C for the second.

Compared with `COC(=O)c1cc(NC(C)=O)c2cc(Cc3ccc(F)cc3)cnc2c1O`, `CC(=O)Nc1nc(CCc2ccc(N)cc2)c(-c2ccc(S(C)(=O)=O)cc2)s1` is lower in melting point: 243 to 245 °C for the first, 202 to 204 °C for the second.

Compared with `COc1ccc2cc(C(C)C(=O)N3CSCC3C(=O)O)ccc2c1` (configuration not stated), `COc1ccc(C[C@](C)(N[C@@H](C(N)=O)c2ccccc2)C(N)=O)cc1` is lower in melting point: 165 to 168 °C for the first, 106 to 108 °C for the second.

Compared with `Cc1noc(NS(=O)(=O)c2ccc(C(C)(C)C)cc2)c1C`, `CCc1c(C)c(NC(=O)CC(C)(C)C)c(C)c2c1OCC2c1ccc(C(C)C)cc1` (configuration not stated) is lower in melting point: 151 to 154 °C for the first, 135 to 136 °C for the second.

First: O=C(NC(=O)c1c(F)cccc1F)Nc1ccc2c(c1)C(F)(F)OC(F)(F)O2
Second: Fc1ccc(F)c(N=C2CCCc3cc4c(nc32)C(=Nc2c(F)cccc2F)CCC4)c1
The melting point of the first is higher: 231 °C for the first, 145 to 150 °C for the second.

First: CS(=O)(=O)c1ccc(-c2ccccc2C=C2CCCCC2)cc1
Second: COc1ccc(C2=C(c3ccccc3)CCCc3cc(OC4CCCCO4)ccc32)cc1 (configuration not stated)
The melting point of the first is lower: 83 °C for the first, 131 to 133 °C for the second.

Compared with `OCCc1nccn1CCCc1ccc(OCc2ccccc2)cc1`, `ON=Cc1cc(OCC(F)(F)F)ccc1OCc1ccccc1` is higher in melting point: 80 to 82 °C for the first, 93 to 95 °C for the second.

First: CCS(=O)(=O)N(c1cc(-c2nsc(C(F)(F)F)c2Cl)c(Cl)cc1Cl)S(=O)(=O)CC
Second: Cc1ccc2nc(C3(c4ccc(S(N)(=O)=O)cc4)C=C(C(F)(F)F)NN3)oc2c1 (configuration not stated)
The melting point of the first is lower: 153 to 154 °C for the first, 260 to 261 °C for the second.

Compared with `CC(=NC#N)N[C@@H]1c2cc(C#N)ccc2OC(C)(C)[C@H]1OS(C)(=O)=O` (relative stereo), `CC(=O)NCC1CN(c2ccc(N3CCC(O)C(C)(C)C3)c(F)c2)C(=O)O1` (configuration not stated) is lower in melting point: 202 to 204 °C for the first, 70 to 72 °C for the second.

First: COC1=C(c2ccccc2)C(CCCC(=O)O)OC1=O (configuration not stated)
Second: COc1cc(OC)c(NC(=S)Nc2ccccc2)cc1O
The melting point of the first is lower: 94 to 96 °C for the first, 152 to 154 °C for the second.

First: O=c1[nH]nc2n1-c1ccc(Cl)cc1C(c1ccccc1F)CC2 (configuration not stated)
Second: O=C1CC(=C[N+](=O)[O-])Nc2ccc(Cl)cc2N1c1ccccc1
The melting point of the first is lower: 236 to 238 °C for the first, 248 to 251 °C for the second.

First: NC(=O)NCc1c[nH]c(=S)n1[C@H]1CCc2c(F)cc(F)cc2C1
Second: O=C(O)Cc1csc(NC(=O)C(Oc2ccc(F)cc2)c2ccc(S(=O)(=O)C3CC3)cc2)n1 (configuration not stated)
The melting point of the first is higher: 258 to 260 °C for the first, 72 to 73 °C for the second.

First: Nc1ncccc1-c1nc2ccc(-c3cccnc3)nc2n1-c1ccc(CC(=O)Nc2ccccc2)cc1
Second: CCN(CC)CCOc1ccc(Nc2ncc3c(n2)N(c2cccc(CCO)c2)C(=O)N(c2ccccc2Br)C3)cc1
The melting point of the first is higher: 162 to 164 °C for the first, 98 °C for the second.

First: COC(=O)CCc1nc(C(=O)OC)ccc1OC
Second: CCOC(=O)COc1ccc(CCl)cc1OC
The melting point of the first is higher: 98 to 100 °C for the first, 64 to 66 °C for the second.

Compared with `C#CCn1c(-c2cc(Cl)nc(Cl)c2)nn(C(C)(C)C)c1=O`, `CC1NC(=O)NN=C1c1ccc(Cl)c(N)c1` (configuration not stated) is higher in melting point: 107 to 109 °C for the first, 226 to 228 °C for the second.

First: COC(=O)c1cc2ccc(S)cc2nc1OC
Second: COc1ccc2c(c1)C=Cn1c(nnc1OC)C2
The melting point of the first is lower: 103 to 105 °C for the first, 185 to 186 °C for the second.

Compared with `CCCc1nccn1-c1nc(-c2ccc(Cl)cc2)c(CCCOc2ccccc2OC)o1`, `Cc1cnc(NCCc2ccccn2)c(=O)n1NC(=O)CCc1cc(Cl)ccc1Cl` is higher in melting point: 89 to 90 °C for the first, 188 to 191 °C for the second.

First: CCOC(=O)C1=C(C)NC(CSCCc2ccccc2)=C(C(=O)OCC)C1c1cccc([N+](=O)[O-])c1 (configuration not stated)
Second: C#Cc1cccc(C(=O)OCc2ccccc2)c1N
The melting point of the first is higher: 73 to 75 °C for the first, 42 to 43 °C for the second.

First: COC(=O)c1ncc(C)cc1S(N)(=O)=O
Second: COC(=O)ON=C(N)c1ccc(C(=O)OC(C)(C)C)cc1
The melting point of the first is lower: 86 to 88 °C for the first, 157 to 159 °C for the second.

First: CCCCCC(=O)NCCCSc1ccncc1
Second: CCCCNc1nc(N)nc(NCCCC)n1
The melting point of the first is lower: 48 to 49 °C for the first, 73 °C for the second.

First: COc1ccc2[nH]c(S(=O)Cc3nccc(N(C)C)c3Cl)nc2c1 (configuration not stated)
Second: COc1cc(NC(C)CCCN2C(=O)c3ccccc3C2=O)c2ncccc2c1N(C)C (configuration not stated)
The melting point of the first is higher: 113 to 114 °C for the first, 103 to 105 °C for the second.

First: N#CC(C#N)=C1N(CCCN2CCCCC2)CCN1CCN1CCCCC1
Second: O=C1CC(Br)CCCCCCCCCN1 (configuration not stated)
The melting point of the first is lower: 88 to 89 °C for the first, 155 to 157 °C for the second.

First: Cc1cc(C(O)(C(F)(F)F)C(F)(F)F)cc(C)c1S
Second: Cc1nc(C)c(-c2cncc(OC3SCC(O)C(O)C3O)c2)s1 (configuration not stated)
The melting point of the first is lower: 62 to 64 °C for the first, 150 °C for the second.

Compared with `Cc1nn(C)c(Oc2ccc([N+](=O)[O-])cc2[N+](=O)[O-])c1C(=O)c1ccc(Cl)cc1Cl`, `Cc1cncc(C(=O)Nc2cc(-c3c(-c4ccc(F)c(C)c4)nc4cccnn34)ccn2)c1` is higher in melting point: 190 to 192 °C for the first, 238 to 240 °C for the second.

`CC(C)c1oc(-c2ccccc2)c(-c2ccc(F)cc2)c1C=CC=O` and `CCC(=C(c1ccc(I)cc1)c1ccc(OCCCCl)cc1)c1ccccc1` fall in the same range of melting point: 98 to 100 °C for the first, 98 to 100 °C for the second.

First: CCCc1ccc(N2CCC(O)CC2)nn1
Second: C=CCOc1ccc(C)c2c1C(=O)C1CCCCC21 (configuration not stated)
The melting point of the first is higher: 138 to 140 °C for the first, 106 to 107 °C for the second.

Compound `CC(C)S(=O)(=O)c1cc(OCCc2ccccn2)c2[nH]nc(Nc3ncc(CN4CCOCC4)s3)c2c1` has a melting point of over 190 °C.
